The record followed here is PubChem BioAssay AID602389 (Broad Institute, 2012).

Each structure is given as a SMILES string. Activity calls are given as the source filed them.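 The calls were made as follows: active = growth down by 35% or more in duplicate, reached at no more than twice the top tested dose; inactive = growth raised instead, and the rest.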

This test in a line: P. aeruginosa growth delay under iron chelation, dose response, absorbance, plate reader, cherry-picks (AID 602389). As to conditions: P. aeruginosa growth with EDDHA, OD600, 24-30 h; at 50 µM (top of the series).
For `COc1ccc(/C=C/C(=O)c2ccoc2)cc1`, the growth change, negative = inhibition was 4.86% (inactive). With `Cc1ccc(C(C#N)c2ccc(Cl)nn2)cc1` (stereo unspecified) the figure was -0.103% (inactive); with `Cc1cccc(NC(=O)c2ccc3c(c2)OCCO3)n1`, 2.6% (inactive); with `O=C(NC1CCCC1)c1cc(Cl)ccc1[N+](=O)[O-]`, 7.04% (inactive). `N#CC(c1ccc(Cl)nn1)c1ccccc1Cl` (stereo unspecified): the growth change, negative = inhibition is -4.43% (inactive). The same measure for `CCOC1=CC(=O)OC(c2ccccc2)C1` (stereo unspecified): 3.24% (inactive).

For the compound `CCOC(=O)CCCn1ncn2c(cc3occc32)c1=O`, the growth change, negative = inhibition was -2.87% (inactive). The same measure for `O=S1(=O)CCOC[C@H](c2ccccc2)N1Cc1cccc(Cl)c1`: 7.06% (inactive); for `Cn1cccc1C(=O)OCc1cc(-c2ccco2)on1`: 6.86% (inactive); for `CSc1nnc(-c2ccc([N+](=O)[O-])cc2)o1`: -9.96% (inactive). The same measure for `O=C1C=C(c2cccc(Cl)c2)C[C@@H](c2ccc(F)cc2)C1`: 17.4% (inactive); for `CCOC(=O)N1CCN(c2ccc(Cl)cc2)CC1`: -0.021% (inactive); for `O=C1N[C@@H](Cc2ccccc2)[C@@H](c2ccco2)O1`: 16.2% (inactive). Consider `COc1ccc(/C(C#N)=C/c2cccnc2)cc1`, for which the growth change, negative = inhibition was -1.53% (inactive). The same measure for `Clc1ccc2scc(CN3CCCC3)c2c1`: -1.16% (inactive); for `COC(=O)c1ccc(OC(=O)c2ccco2)cc1`: -12.9% (inactive); for `CN(Cc1ccccc1)c1ncnc2ccc(Br)cc12`: 9.04% (inactive). On to `CCOC(=O)/C=C(\C)Sc1cc(=O)oc2ccccc12`, for which the growth change, negative = inhibition was 19.4% (inactive). On to `Cc1cc(NC(=O)c2c(F)c(F)c(F)c(F)c2F)no1`, for which the growth change, negative = inhibition was 14.5% (inactive). `O=[N+]([O-])c1ccc(N2CCCC2)nc1`: the growth change, negative = inhibition was 9.43% (inactive).

In the case of `CC(C)N=C(NC#N)SCc1ccccc1F`, the growth change, negative = inhibition was -1.36% (inactive).

Turning to `O=C(NC1CCSC1)c1cccc(Cl)c1` (stereo unspecified), the growth change, negative = inhibition was 2.12% (inactive). The same measure for `OC(c1cccc(Cl)c1)c1nccc2ccccc12` (stereo unspecified): -6.69% (inactive); for `CCOC(=O)CC(C#N)c1cn(C)c2ccccc12` (stereo unspecified): -0.14% (inactive); for `N#C/C(=C/c1ccco1)c1nc2ccccc2s1`: 18.7% (inactive). The same measure for `Cc1cc(NC(=O)c2cc([N+](=O)[O-])cc([N+](=O)[O-])c2C)no1`: 5.73% (inactive). The same measure for `O=C(NC1CCCC1)c1cccc(Cl)c1`: 7.87% (inactive). As to `N#CC(c1ccc(Cl)nn1)c1c(F)cccc1Cl` (stereo unspecified), the growth change, negative = inhibition is 15% (inactive). The same measure for `O=[N+]([O-])c1ccc(N2CCCCC2)cc1`: 8.85% (inactive); for `COc1ccc(C(C#N)c2ccc(Cl)nn2)cc1` (stereo unspecified): -3.93% (inactive). The same measure for `N#Cc1cc([N+](=O)[O-])ccc1N1CCCC1`: -11.4% (inactive).

`Cc1ccc(S(=O)(=O)NCCC(C)C)cc1[N+](=O)[O-]`: the growth change, negative = inhibition was 1.56% (inactive). `CCOC(=O)c1cnc(-c2ccccc2)nc1N`: the growth change, negative = inhibition is -4.77% (inactive).

For `O=CNC1(c2ccccc2)CCCCC1`, the growth change, negative = inhibition is -5.85% (inactive).

`Cc1cc(NC(=O)c2cc([N+](=O)[O-])ccc2Cl)no1`: the growth change, negative = inhibition was 24.8% (inactive). Take `Cc1ccc2scc(CN3CCCC3)c2c1`: the growth change, negative = inhibition is -6.73% (inactive). With `CCNC(=O)COc1ccc2ccccc2c1` the figure was 3.07% (inactive); with `Cc1cc(S(=O)(=O)NCC2CC2)c(Cl)cc1Cl`, 9.74% (inactive). The same measure for `Cc1ccc(S(=O)c2ccc(C)cc2)cc1`: 0.078% (inactive).

Take `CSC1=N/C(=C\C=C\c2cccs2)C(=O)S1`: the growth change, negative = inhibition is 13.6% (inactive). In the case of `COC(=O)c1ccc(NC(=S)N2CCCC2)cc1`, the growth change, negative = inhibition is 12% (inactive).

With `CC(C)(C)NC(=O)c1cc(Cl)ccc1[N+](=O)[O-]`, the growth change, negative = inhibition was 12.1% (inactive). For the compound `O=C1C2C(C(=O)N1Cc1ccco1)C1C=CC2C12CC2` (stereo unspecified), the growth change, negative = inhibition is 2.46% (inactive). With `COC(=O)c1ccc(/C=C(\C#N)c2ccccn2)cc1` the figure was 9.37% (inactive); with `Cc1ccc(O)c(C(=O)/C=C/c2ccc3c(c2)OCCO3)c1`, 19.8% (inactive). With `Cc1cc(C)nc(N(C#N)Cc2cccc([N+](=O)[O-])c2)n1` the figure was 12.9% (inactive). With `N#CC(Sc1ccccn1)c1ccc(Cl)cc1` (stereo unspecified) the figure was 15.4% (inactive); with `O=CC1=C(c2ccccc2)Oc2ccccc2O1`, -4.48% (inactive); with `COc1ccc(-c2cc3ncccc3cn2)cc1`, 7% (inactive). As for `O=CN(c1ccccc1)c1ccc2ccccc2c1`, the growth change, negative = inhibition is -5.6% (inactive).

As to `CCC(C)NS(=O)(=O)c1ccc(OC)c(Cl)c1Cl` (stereo unspecified), the growth change, negative = inhibition was -10.7% (inactive). The same measure for `O=C1C2C3C=CC(C4CC34)C2C(=O)N1Cc1ccco1` (stereo unspecified): 43.3% (inactive); for `Cc1ccc(C)c(S(=O)(=O)NC2CCSC2=O)c1` (stereo unspecified): -4.84% (inactive).

Regarding `CCOc1ccc(CNC2CCCc3ccccc32)cc1` (stereo unspecified), the growth change, negative = inhibition was 20.8% (inactive). With `N#CC1C(C#N)C2CCC1C1C2N1c1ccccc1` (stereo unspecified) the figure was -7.23% (inactive). On to `COc1ccccc1C(C#N)c1cccc(Cl)n1` (stereo unspecified), for which the growth change, negative = inhibition is 5.02% (inactive).

Consider `CC(C)CCNC(=O)c1cccc(Cl)c1`, for which the growth change, negative = inhibition was -12.3% (inactive). The same measure for `Cc1cccc(NC(=O)Nc2cc(C)on2)c1`: 2.69% (inactive); for `N#CC(c1cccc(Cl)c1)c1ncc(C(F)(F)F)cc1Cl` (stereo unspecified): 1.76% (inactive). The same measure for `COc1ccc(N=C(C)C2=C(O)CSC2=O)cc1`: 15.6% (inactive); for `N#CC(c1ccc(Cl)cc1)c1ccc(Cl)nn1` (stereo unspecified): -4.67% (inactive). As for `COc1ccc(CNCc2cccc(Cl)c2)cc1`, the growth change, negative = inhibition is 4.12% (inactive).

As for `CCOC(=O)c1ccc(N2Cc3ccccc3C2=N)cc1`, the growth change, negative = inhibition was -6.69% (inactive). Turning to `CCCCCC1CC(COc2ccccc2)OC1=O` (stereo unspecified), the growth change, negative = inhibition was -10.5% (inactive).

In the case of `CO/N=C/c1cn(-c2ccc(Cl)cc2)nn1`, the growth change, negative = inhibition was -0.342% (inactive).

With `CCOc1ccc(-n2cccc2C=O)cc1`, the growth change, negative = inhibition is 1.21% (inactive).
